Reference: US5552421A, “Leukotriene biosynthesis inhibitors” (Boehringer Ingelheim Pharmaceuticals, Inc., priority 1995, dated 1996)
Blank lines part the entries; values can stand above or below the molecule they belong to.

Assays:
[1] = tested on: LTB4 biosynthesis in human polymorphonuclear leukocytes (PMNs); test: Inhibition of LTB4 biosynthesis in human polymorphonuclear leukocytes (PMNs); type: cell-based
Protocol: Inhibition of LTB4, biosynthesis in human polymorphonuclear leukocytes (PMNs)
The inhibition of leukotriene biosynthesis is measured by determining whether and to what extent test compounds can inhibit LTB4 production from endogenous arachidonic acid in human peripheral blood leukocytes.
To 48-well tissue culture plates was added a solution of the test compound followed by addition of human polymorphonuclear leukocytes isolated from peripheral blood at a density of 1.5×10^6 cells/well. Culture plates were preincubated for fifteen minutes with shaking at 28° C. Cells were stimulated with calcium ionophore A23187 at a final concentration of 2.5 μM for an additional ten minutes. The reaction was terminated by the addition of an EGTA solution (10 mM final concentration)followed by centrifugation at 1500 rpm at 10° C. Supernatants were stored at -70° C. LTB4 levels were determined by RIA using a commercially available kit. Nonlinear regression analysis was used to calculate. IC50 values.
The following tables show % inhibition of LTB4 biosynthesis by compounds of the invention at test concentrations indicated, with the determined IC50 shown in μM.

[2] = tested on: leukotriene component of antigen-induced bronchoconstriction; test: Antigen-Induced Bronchoconstriction in Guinea Pigs; type: in vivo, guinea pig (male Hartley); conditions: aerosol, vs placebo treated controls
Excerpt: Antigen-Induced Bronchoconstriction in Guinea Pigs
This model measures the ability of a compound to block the leukotriene component of antigen-induced bronchoconstriction. Male Hartley guinea pigs are actively sensitized to ovalbumin, pretreated with mepyramine and indomethacin (to block the histamine and cyclooxygenase metabolite components respectively), and test compound (by aerosol administration). The guinea pigs are challenged with antigen (inhaled ovalbumin). Pulmonary function is measured by oscillatory mechanics as described by W. W. Wolyniec et al. (Agents and Actions 1991, 34, 1/2, 73). Results are expressed as percent inhibition of bronchoconstriction (resistance) in the test compound treated guinea pigs compared to placebo treated controls.
*Refers to amount of test compound inhaled by gunea pig. Compounds
administered by aerosolized freon/ethanol solution from metered dose

[3] = Homo sapiens, Leukocyte, Table 3, Phenyl, values with <: see footnote d, Table 1
[4] = Homo sapiens, Leukocyte, Table 4, Pyridyl, values with <: see footnote d, Table 1
[5] = Leukocyte, Table 1, Esters, LTB4, A23187-stimulated human PMNs, values with < (footnote d): greater than 50% (504 [sic]) inhibition at this concentration, IC50 not characterized further
[6] = Homo sapiens, Leukocyte, Table 8, Miscellaneous Acyclic, values with <: see footnote d, Table 1
[7] = Table 4, Pyridyl, values with <: see footnote d, Table 1

IC50 [1, 3]: 6.9 nM
Compound: c1ccc(C(CC2CCCCC2)Nc2nc3ccccc3o2)cc1 (stereo not shown) [Compound 51, 2-(2-Cyclohexyl-1-phenyl]ethylaminobenzoxazole]
% Inhibition of bronchoconstriction (resistance) ([2]; 274 micrograms inhaled): 86%

IC50 [1, 4]: 3.1 nM
Compound: Cc1ccc2oc(NC(CC3CCCCC3)c3ccccn3)nc2c1 (stereo not shown) [Compound 81]
% Inhibition of bronchoconstriction (resistance) ([2]; 2.8 micrograms inhaled): 61%
% Inhibition of bronchoconstriction (resistance) ([2]; 28 micrograms inhaled): 64%
% Inhibition of bronchoconstriction (resistance) ([2]; 308 micrograms inhaled): 64%

IC50 [1, 3]: 550 nM
Compound: COc1ccc(C(CC2CCCCC2)Nc2nc3ccccc3o2)cc1 (stereo not shown) [Compound 56]
% Inhibition of bronchoconstriction (resistance) ([2]; 95 micrograms inhaled): 43%

IC50 ([1]; Homo sapiens, Leukocyte, Table 10, Oxazolopyridines, values with <: see footnote d, Table 1): 26 nM
Compound: Cc1ccc2oc(NC(CC3CCCCC3)c3ccccn3)nc2n1 (stereo not shown) [Compound 165]
% Inhibition of bronchoconstriction (resistance) ([2]; 5.6 micrograms inhaled): 0%
% Inhibition of bronchoconstriction (resistance) ([2]; 28 micrograms inhaled): 64%
% Inhibition of bronchoconstriction (resistance) ([2]; 274 micrograms inhaled): 84%

IC50 [1, 5]: 330 nM
Compound: CCOC(=O)C(Cc1ccc(Cl)cc1)Nc1nc2ccc(C(C)C)cc2s1 (racemic) [Compound 7, DL-N-(6-Isopropylbenzothiazol-2-yl)-4-chlorophenylalanine ethyl ester]

IC50 ([1]; Homo sapiens, Leukocyte, Table 2, Amides, values with <: see footnote d, Tables 1 and 1A): < 1000 nM
Compound: CON(C)C(=O)[C@H](Cc1ccccc1)Nc1nc2ccccc2o1 [Compound 43]

IC50 [1, 4]: 4 nM
Compound: Clc1ccc2sc(NC(CC3CCCCC3)c3ccccn3)nc2c1 (stereo not shown) [Compound 97]

IC50 [1, 6]: 16 nM
Compound: CCOC[C@H](Cc1ccccc1)Nc1nc2cc(C(C)C)ccc2o1 [Compound 133]

IC50 [1, 4]: 35 nM
Compound: O=[N+]([O-])c1ccc2nc(NC(CC3CCCCC3)c3cccnc3)oc2c1 (stereo not shown) [Compound 84]

IC50 ([1]; Homo sapiens, Leukocyte, Table 11, Thiazolopyridines, values with <: see footnote d, Table 1): 170 nM
Compound: c1cncc(C(CC2CCCCC2)Nc2nc3cccnc3s2)c1 (stereo not shown) [Compound 173]

IC50 [1, 3]: 170 nM
Compound: CN(C)C(=O)c1ccc2oc(NC(CC3CCCCC3)c3ccccc3)nc2c1 (stereo not shown) [Compound 65]

IC50 [1, 3]: 76 nM
Compound: CC(=O)Nc1ccc2oc(NC(CC3CCCCC3)c3ccccc3)nc2c1 (stereo not shown) [Compound 61]

IC50 [1, 6]: < 300 nM
Compound: CCCOCC(Cc1ccc(F)cc1)Nc1nc2cc(C(C)C)ccc2o1 (stereo not shown) [Compound 138]

IC50 [1, 7]: 1.3 nM
Compound: Cc1ccc2oc(NC(CC3CCCCC3)c3ccccn3)nc2c1 (single isomer, unassigned) [Compound 87]

IC50 [1, 7]: 320 nM
Compound: Fc1ccc(CC(Nc2nc3cc(Cl)ccc3o2)c2ccccn2)cc1 (single isomer, unassigned) [Compound 119]

IC50 [1, 6]: < 30 nM
Compound: CCOCC(Cc1ccc(F)cc1)Nc1nc2cc(C(C)C)ccc2o1 (stereo not shown) [Compound 137]

IC50 [1, 5]: 87 nM
Compound: CCOC(=O)C(Cc1csc(C)n1)Nc1nc2cc(Cl)ccc2o1 (stereo not shown) [Compound 29]
